From patent US20240366624A1, “METHODS AND COMPOSITIONS FOR TREATING THROMBOTIC DISEASE” (Washington University, priority 2023, published 2024) come the findings set out here.

“Also recorded” adds a separate entry of the source.

The test system of assay [1] is WT (C57BL/6) mice. Kind of assay: Intravital microscopy, laser-induced cremaster arteriolar injury, WT mice. The assay is classed as in vivo, mouse. To be noted: iv 5 μg/g BW. As for the experimental part: Intravital microscopy was performed in a mouse model of laser-induced cremaster arteriolar injury as previously described. WT (C57BL/6), littermate WT control, and CKO and KO male mice (8-10 weeks old) were anesthetized with intraperitoneal injection of ketamine and xylazine. The cremaster muscle was exteriorized and superfused with 37° C. bicarbonate-buffered saline throughout the experiment. Arteriolar wall injury was induced by laser ablation (Photonics Instruments) as previously described. Multiple thrombi were generated in at least 3 to 4 different arterioles of 1 mouse, with new thrombi formed upstream of earlier thrombi to minimize any contribution from thrombi generated earlier in the mouse. Platelets and fibrin were visualized by infusion of DyLight 649-conjugated anti-CD42c (0.2 μg/g body weight [BW]) and Alexa Fluor 488-conjugated anti-fibrin (0.2 μg/g BW) antibodies, respectively. To detect extracellular Ero1α, Alexa Fluor 488-conjugated rabbit IgG or nonblocking anti-ERO1α antibodies (0.3 μg/g BW) were injected into WT (C57BL/6), WT control, Ero1α KO, and Ero1α CKO mice. In some experiments, wtERO1α or activity-null ERO1α-Cys94Ser (mutant ERO1α [mERO1α]; 4 μg/g BW) was infused into Ero1α KO mice before imaging. To test the effect of ERO1α inhibitors or blocking anti-ERO1α antibodies, WT (C57BL/6) mice were treated with intravenous injection of vehicle control, eptifibatide (5 μg/g BW), B12-5 (5 μg/g BW), isotype control IgGs, anti-ERO1α (15E9, 1-3 μg/g BW), or anti-PDI (BD34, 3 μg/g BW) 3 minutes before treatment with the anti-CD42c and anti-fibrin antibodies. The same dose of eptifibatide was injected every 20 minutes to maintain the inhibitory effect. […] Fluorescence and bright-field images were captured in 6 to 10 different cremaster arterioles with a diameter of 30 to 45 μm in each mouse and recorded using either an Olympus BX61W microscope with a 60×1.0 salt water immersion objective or a Zeiss Axio Examiner Z1 microscope system with a Yokogawa confocal spinning disk (CSU-W1) equipped with 4 stack laser system (405-, 488-, 561-, and 637-nm wavelengths). Images were collected with a high-speed, high-resolution camera (2304×2304 pixel format; ORCA-Fusion BT sCMOS, Hamamatsu). Time 0 was set to when image capture began on each vessel. The data were analyzed using Slidebook (version 6.0; Intelligent Imaging Innovations). Due to the significant variation between vessels in the same mouse, the result from each vessel was counted as an individual value. Representative images were chosen that most closely resemble the mean values in the quantifications.

Assay [2] relates to WT mouse platelets. The assay can be described thus: Platelet aggregation, WT mouse platelets. The assay is classed as cell-based. As for the experimental part:
FIG. 9(A-C) is an exemplary embodiment of EN460 inhibiting thrombin-induced aggregation of mouse and human platelets in accordance with the present disclosure. (A) Human (FIG. 9A), WT (FIG. 9B), and Ero1α-null (FIG. 9C) platelets were pretreated with EN460, an ERO1α inhibitor, at 1, 3, or 10 μM, and treated with 0.025 U/ml thrombin to induce platelet aggregation. The data represent the mean±SD (n=3). P values determined by ANOVA and Dunnett's test (FIG. 9(A-B)) or Student's t-test (FIG. 9C).
FIG. 10(A-E) is an exemplary embodiment of 15E9 not affecting platelet activation and aggregation in accordance with the present disclosure. […] P values determined by unpaired Student's t-test (vs. mIgG1).
FIG. 18(A-R) is an exemplary embodiment of novel small-molecule inhibitors recapitulating the defect in Ero1α (endoplasmic reticulum oxidoreductase 1a)-null platelets in accordance with the present disclosure. […] After incubation with a different concentration of B12-5, the specific interaction between B12-5 and ERO1α was measured by subtracting the nonspecific binding. The KD value was calculated from the Kon and Koff values. […] P values determined by ANOVA and Dunnett test (FIG. 18(B-E), FIG. 18(1-L), and FIG. 18(O-R) [for B12-5]) or Student t test (FIG. 18M, FIG. 18N, and FIG. 18(O-R) [for BAPTA (1,2-bis(o-aminophenoxy)ethane-N,N,N′,N′-tetraacetic acid)]).

For `O=C(CSc1nc(O)cc(O)n1)N1c2ccccc2Sc2ccccc21` [B12-5], the platelet thrombus formation entry in assay [1] is on record as “significantly inhibited; also recorded: significantly reduced”; in assay [1] (listed as B112-5), “inhibit”. The “thrombin- or CRP-induced WT platelet aggregation” value in assay [2] (10 μM) was “significantly mitigated”.

Take `O=C(O)c1cc(N2N=C(C(F)(F)F)/C(=C/c3ccc(-c4ccccc4)o3)C2=O)ccc1Cl` [EN460]: in assay [2] (3 to 10 μM, mouse platelets), the thrombin-induced aggregation result is “abrogated”.
